From patent US6723897B2, “Methods for controlling gibberellin levels” (Monsanto Technology, LLC, priority 1998, dated 2004)

Tests used:
[1] = tested on: wild-type soybeans (line A3237); experiment: Summary of first two greenhouse experiments, elongation of wild-type soybeans
Description: (§1) Compounds are first prepared as 25 mg/ml solutions in ethanol as described above, and then diluted into 40 ml of water to prepare the final 0.25 mg/ml treatment solutions. Visual observations on solubilities (milky, clear, etc.) of the treatment solutions are noted. The treatment solutions are divided into two 20 ml portions, each in 50 ml plastic centrifuge tubes. In addition to treating seeds with solutions containing the test compounds, untreated seeds and seeds imbibed in ethanol-water solution (300 μl ethanol in 30 mls of water) are also included in this experiment as controls. In the latter case, 20 seeds are imbibed in 30 mls of solution for six hours.
(§2) Two soybean varieties are selected for testing: constitutively GA-deficient transgenic dwarf soybean line 719 (plasmid pMON29801, constitutive FMV promoter/asCPScc; which is a mixture of 719−2 and 719+17), and A3237, the wild-type parent material. […] After imbibition, seeds are removed from the test tubes, placed on wax paper to dry, and planted in bread pans containing farm soil amended with fertilizer at 20 seeds/pan. Seeds are covered with 0.5″ of vermiculite. Pans are transferred to the greenhouse, which had day/night temperatures of 86/68° F. (30/20° C.), and subirrigated. Illumination is at a light intensity of 300-400 μmolm^−2s^−1 photosynthetic photon flux; 16 hours light/8 hours dark. Subsequent waterings are also through sub-irrigation until the test is terminated three weeks later. Observations included the number of dwarf, intermediate, and tall plants; plant height; uniformity of rescue; and any visual effects.
(§3) All compounds are tested at final concentrations of 0.25, 0.025, and 0.0025 mg/ml except for GA9, which is tested at 0.125, 0.0125, and 0.00125 mg/ml. (The compounds are tested in Experiment I at only one concentration, i.e., 0.25 mg/ml). Test tubes contained […] of ethanol solution per tube. Final volumes are made up to 30 ml with deionized water. After shaking, the treatment solutions (15 ml each) are transferred to each of two 50 ml test tubes. Treatments 1 to 27 are performed on wild-type line A3237; treatments 28 to 54 are performed on constitutively GA-deficient transgenic dwarf soybean line 719 (a mixture of 719−2 and 719+17). Twenty seeds are used in each treatment. Dry seed, ethanol/water-imbibed seed (1% ethanol in water, v/v), and water-imbibed seeds are included as controls. Seeds are imbibed for 6 hours in the test solutions, then planted in bread pans containing Metromix 350 (The Scotts Company, Marysville, Ohio), and covered with 0.5″ Metro-mix. Covered pans are transferred to the greenhouse and subirrigated. Illumination is at a light intensity of 300-400 μmolm^−2s^−1 photosynthetic photon flux; 16 hours light/8 hours dark. Subsequent waterings are also through sub-irrigation until the test is terminated three weeks later. Observations included the number of dwarf, intermediate, and tall plants; plant height; uniformity of rescue; and any visual effects. Digital photographs are also taken.

[2] = tested on: constitutively GA-deficient transgenic dwarf soybeans (line 719); experiment: Summary of first two greenhouse experiments, rescue of GA-deficient soybeans; format: in vivo, Glycine max; set-up: key: +: transgenic soybeans are rescued; 0: transgenic soybeans are not rescued
Description: as §1, §2, §3

[3] = tested on: constitutively GA-deficient transgenic dwarf soybean line 719; experiment: Experiment II second greenhouse test, seed imbibition, GA-deficient soybean; format: in vivo, Glycine max; settings: seeds imbibed 6 hours
Description: as §3, with “(The” for “All compounds are tested at final concentrations of 0.25, 0.025, and 0.0025 mg/ml except for GA9, which is tested at 0.125, 0.0125, and 0.00125 mg/ml. (The”, “Treatments 1 to 27 are performed on wild-type line A3237; treatments 28 to 54 are performed on constitutively GA-deficient transgenic dwarf soybean line 719 (a mixture of 719−2 and 719+17).” left out

[4] = tested on: constitutively GA-deficient transgenic dwarf soybean line 719; experiment: Experiment I greenhouse test, seed imbibition, GA-deficient soybean; format: in vivo, Glycine max; set-up: Observation on Transgenic Line 719: key: −1: treated plants are shorter as compared to untreated plants; 0: treated plants had the same stature as untreated plants; 1: treated plants are slightly elongated as compared to untreated plants; 2: treated plants are moderately elongated as compared to untreated plants; 3: treated plants are highly elongated as compared to untreated plants; 4: treated plants are extremely elongated as compared to untreated plants; settings: 0.25 mg/ml; for effect in both the constitutive transgenic dwarf and wild-type soybean lines: imbibition, lines 719 and A3237; for Observation on Transgenic Line 719: seeds imbibed 5 hours
Text: Seeds are covered with 0.5″ of vermiculite.

[5] = tested on: wild-type soybean line A3237; experiment: Experiment I greenhouse test, seed imbibition, wild-type soybean; settings: 0.25 mg/ml; seeds imbibed 5 hours
Description: Compounds are first prepared as 25 mg/ml solutions in ethanol as described above, and then diluted into 40 ml of water to prepare the final 0.25 mg/ml treatment solutions. Visual observations on solubilities (milky, clear, etc.) of the treatment solutions are noted. The treatment solutions are divided into two 20 ml portions, each in 50 ml plastic centrifuge tubes. In addition to treating seeds with solutions containing the test compounds, untreated seeds and seeds imbibed in ethanol-water solution (300 μl ethanol in 30 mls of water) are also included in this experiment as controls. […]
After imbibition, seeds are removed from the test tubes, placed on wax paper to dry, and planted in bread pans containing farm soil amended with fertilizer at 20 seeds/pan. Seeds are covered with 0.5″ of vermiculite. Pans are transferred to the greenhouse, which had day/night temperatures of 86/68° F. (30/20° C.), and subirrigated. Illumination is at a light intensity of 300-400 μmolm^−2s^−1 photosynthetic photon flux; 16 hours light/8 hours dark. Subsequent waterings are also through sub-irrigation until the test is terminated three weeks later. Observations included the number of dwarf, intermediate, and tall plants; plant height; uniformity of rescue; and any visual effects.

wild-type A3237 soybean = experiment: Hilum treatment of soybean seeds, seedling growth and development, wild-type soybean; format: in vivo, Glycine max; set-up: key to Emergence timing / Hypocotyl length (6 DAP) / 1st internode length (12 DAP) / 3rd internode length (20 DAP): pos: emergence faster/stem segment longer than controls; 0: emergence timing/stem segment length similar to controls; neg: emergence slower/stem segment shorter than controls; settings: for Lowest rate where biological activity is observed, 1st internode length (10 DAP) / Lowest rate where biological activity is observed, emergence timing / Lowest rate where biological activity is observed, hypocotyl length (5 DAP): rate response; for 1st internode length (12 DAP) / Emergence timing / Hypocotyl length (6 DAP): single rate per compound 8.3-16.5 μg/seed
Description: (§4) In the previous experiments, the effect of various GA compounds on transgenic, GA-deficient and wild-type soybean is evaluated by treating seeds with these compounds via imbibition. Several of these compounds are not completely soluble in water, which limited the interpretation of their utility in rescuing GA-deficient dwarf plants. The purpose of this experiment is to reevaluate selected, previously tested compounds, and additional compounds, by introducing them to the seed via the hilum. As shown by the results presented below, direct application of small quantities of GA compounds dissolved in an organic solvent to the hilum is an effective method of treating soybean seeds. As in the previously described experiments, comparison is made between activity on GA-deficient soybean seedlings and normal (wild-type) seedlings. […] soybean seeds are supplied by Asgrow Seed Company (Des Moines, Iowa). Seed of GA-deficient transgenic soybean line 719 is created by transformation of […] soybean with pMON29801 (FMV/antisense CPScc). Fifth generation seed (R5) is used for these experiments. […] When multiple droplets are applied, each 1 μl droplet is allowed to dry before subsequent droplets are added. Ethanol minus compound is used a treatment control. […] (29° C.) and 75° F. (24° C.), respectively. Emergence timing is measured by counting the number of emerged seedlings at different times after planting. Emergence is defined as the presence of cotyledons raised to soil level or above. […] To assess the ability of a seed treatment to deliver biological activity beyond the first internode, measurements are taken on selected treatments after prolonged growth and development.

[6] = tested on: GA-deficient transgenic soybean line 719 (R5); experiment: Hilum treatment of soybean seeds, seedling growth and development, GA-deficient soybean; format: in vivo, Glycine max; set-up: key to Emergence timing / Hypocotyl length (6 DAP) / 1st internode length (12 DAP) / 3rd internode length (20 DAP) / 2nd internode length (12 DAP): pos: emergence faster/stem segment longer than controls; 0: emergence timing/stem segment length similar to controls; neg: emergence slower/stem segment shorter than controls; settings: for Lowest rate where biological activity is observed, 1st internode length (10 DAP) / Lowest rate where biological activity is observed, emergence timing / Lowest rate where biological activity is observed, hypocotyl length (5 DAP) / 1st internode length (12 DAP) / Emergence timing / Hypocotyl length (6 DAP): L719, hilum treatment; for Lowest rate where biological activity is observed, 1st internode length (10 DAP) / Lowest rate where biological activity is observed, emergence timing / Lowest rate where biological activity is observed, hypocotyl length (5 DAP): rate response; for 1st internode length (12 DAP) / Emergence timing / Hypocotyl length (6 DAP): single rate per compound 8.3-16.5 μg/seed; for activity on line 719 in terms of emergence timing and hypocotyl length: single rate, concentration that does not affect normal plant tissue
Description: as §4

[7] = 0.0025 mg/ml solution (ethanol-water)
[8] = 0.025 mg/ml solution (ethanol-water)
[9] = 0.25 mg/ml solution (ethanol-water)

Row | SMILES | Elongation of wild-type soybeans [1, 7] | Elongation of wild-type soybeans [1, 8] | Elongation of wild-type soybeans [1, 9] | Rescue of GA-deficient soybeans [2, 7] | Rescue of GA-deficient soybeans [2, 8] | Rescue of GA-deficient soybeans [2, 9] | Significant Visual Observations on Line 719 ([3]; 0.0025 mg/ml) | Significant Visual Observations on Line 719 ([3]; 0.025 mg/ml) | effect in both the constitutive transgenic dwarf and wild-type soybean lines [4] | Observation on Transgenic Line 719 [4] | Observation on Wild-Type Line A3237 [5] | Lowest rate where biological activity is observed, 1st internode length (10 DAP) (wild-type A3237 soybean) | Lowest rate where biological activity is observed, emergence timing (wild-type A3237 soybean) | Lowest rate where biological activity is observed, hypocotyl length (5 DAP) (wild-type A3237 soybean) | 1st internode length (12 DAP) (wild-type A3237 soybean) | Emergence timing (wild-type A3237 soybean) | Hypocotyl length (6 DAP) (wild-type A3237 soybean) | Lowest rate where biological activity is observed, 1st internode length (10 DAP) [6] | Lowest rate where biological activity is observed, emergence timing [6] | Lowest rate where biological activity is observed, hypocotyl length (5 DAP) [6] | also measured
1 | C=C1C[C@]23C[C@@]1(O)CC[C@H]2[C@@]12CC[C@H](O)[C@@](C)(C(=O)O1)[C@H]2[C@@H]3C(=O)O [GA1] | − | + | + | + | + | + | Good rescue of dwarfs | Good rescue of dwarfs | excessive elongation | 4 | 4 |  |  |  |  |  |  |  |  |  | 
2 | C=C1C[C@]23C[C@H]1CC[C@H]2[C@@]12CC[C@H](O)[C@@](C)(C(=O)O1)[C@H]2[C@@H]3C(=O)O [GA4] |  |  | + |  |  | + |  |  | slight to medium elongation | 2 | 2 |  |  |  |  |  |  |  |  |  | 
3 | C=C1C[C@]23C[C@@]1(O)CC[C@H]2[C@@]12CCC[C@@](C)(C(=O)O1)[C@H]2[C@@H]3C(=O)O [GA20] | + | + | + | + | + | + | Good rescue of dwarfs | Good rescue of dwarfs | excessive elongation | 4 | 4 |  |  |  |  |  |  |  |  |  | Significant Visual Observations on Line 719 ([3]; 0.25 mg/ml): Excessive elongation
4 | C=C1C[C@]23C[C@@]1(O)CC[C@H]2[C@]1(C)CCC[C@@](C)(C(=O)O)[C@H]1[C@@H]3C(=O)O [GA53] |  |  |  |  |  |  |  |  |  |  |  | >10 μg/seed | >10 μg/seed | >10 μg/seed | neg | 0 | 0 | >10 μg/seed | 1 μg/seed | 1 μg/seed | 1st internode length (12 DAP) [6]: 0; Emergence timing [6]: pos; Hypocotyl length (6 DAP) [6]: pos; activity on line 719 in terms of emergence timing and hypocotyl length ([6]; hilum): biologically active
5 | C=C1C[C@@]23CC[C@@H]4[C@](C)(CO)CCC[C@@]4(C)[C@@H]2CC[C@@H]1C3 [kaurenol] |  |  |  |  |  |  |  |  |  |  |  | >100 μg/seed | >100 μg/seed | >100 μg/seed | 0 | 0 | 0 | >100 μg/seed | >100 μg/seed | >100 μg/seed | 1st internode length (12 DAP) [6]: 0; Emergence timing [6]: pos; Hypocotyl length (6 DAP) [6]: pos; confirmation of activity previously observed ([6]; rate up to 100 ng/seed, hilum): not confirmed; activity on line 719 in terms of emergence timing and hypocotyl length ([6]; hilum): biologically active
